From patent US9481676B2, “Azepino[4,5-B]indoles and methods of use” (Medivation Technologies, Inc., priority 2008, dated 2016) come the findings set out here.

The target of assay [1] is T1, human recombinant serotonin (5-Hydroxytryptamine) 5-HT2C receptor (Homo sapiens, UniProt P28335).
T1 construct: expressed in transfected cells; host or cells: CHO-K1 cells
T1 sequence (P28335 33-458): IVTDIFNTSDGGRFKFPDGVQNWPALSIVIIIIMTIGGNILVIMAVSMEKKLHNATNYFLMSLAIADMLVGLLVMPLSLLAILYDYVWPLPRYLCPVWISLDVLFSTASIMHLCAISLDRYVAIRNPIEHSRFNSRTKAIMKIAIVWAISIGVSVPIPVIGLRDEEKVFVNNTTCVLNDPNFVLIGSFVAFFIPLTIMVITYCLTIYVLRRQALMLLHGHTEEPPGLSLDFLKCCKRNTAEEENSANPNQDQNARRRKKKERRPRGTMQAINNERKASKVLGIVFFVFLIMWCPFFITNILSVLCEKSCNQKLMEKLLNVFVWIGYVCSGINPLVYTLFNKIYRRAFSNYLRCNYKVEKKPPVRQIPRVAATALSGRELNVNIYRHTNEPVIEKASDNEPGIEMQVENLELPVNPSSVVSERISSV
The experiment in a line: Serotonin 5-HT2C radioligand binding ([3H]Mesulergine). Particulars: compound at 1 μM; read-out: Serotonin (1 μM) 5-HT2C, percent inhibition of specific binding. Summed up: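 Membranes from CHO-K1 cells expressing human 5-HT2C, incubated with 1 nM [3H]mesulergine for 60 min at 25 °C in 50 mM Tris-HCl pH 7.4 with ascorbic acid and pargyline.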

Assay [2] addresses T2, human recombinant serotonin (5-Hydroxytryptamine) 5-HT6 receptor (Homo sapiens, UniProt P50406).
T2 construct: expressed in transfected cells; host or cells: human HeLa cells
In words: Serotonin 5-HT6 radioligand binding ([3H]LSD). The settings on record: compound at 1 μM; read-out: Serotonin (1 μM) 5-HT6, percent inhibition of specific binding. Summed up:
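Human recombinant 5-HT6 receptor from HeLa cells incubated with 1.5 nM [3H]LSD for 120 min at 37° C in 50 mM Tris-HCl pH 7.4, 150 mM NaCl, 2 mM ascorbic acid, 0.001% BSA. Nonspecific binding defined with 5 μM serotonin; bound ligand counted after filtration.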

Assay [3] addresses T3, human recombinant adrenergic α2B receptor (Homo sapiens, UniProt P18089).
T3 construct: expressed in transfected cells; host or cells: CHO-K1 cells
T3 sequence (P18089 1-450): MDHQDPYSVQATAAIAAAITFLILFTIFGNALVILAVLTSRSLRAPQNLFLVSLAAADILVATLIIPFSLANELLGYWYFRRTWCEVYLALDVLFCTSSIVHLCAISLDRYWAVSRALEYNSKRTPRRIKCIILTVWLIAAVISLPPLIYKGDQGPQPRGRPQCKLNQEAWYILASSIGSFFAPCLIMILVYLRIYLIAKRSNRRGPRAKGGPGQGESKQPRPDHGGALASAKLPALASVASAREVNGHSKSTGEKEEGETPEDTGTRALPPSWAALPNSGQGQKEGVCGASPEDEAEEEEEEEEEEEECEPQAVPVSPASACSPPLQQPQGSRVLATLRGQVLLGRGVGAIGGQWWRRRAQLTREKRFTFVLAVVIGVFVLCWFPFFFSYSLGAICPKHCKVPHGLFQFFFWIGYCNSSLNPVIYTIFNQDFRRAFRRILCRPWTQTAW
In words: Adrenergic alpha2B radioligand binding ([3H]Rauwolscine). Particulars: compound at 1 μM; read-out: Adrenergic (1 μM) α2B, percent inhibition of specific binding. In short, it runs like this:
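CHO-K1-expressed receptor in Tris-HCl pH 7.4 with MgCl2, EDTA, BSA, incubated 60 min at 25° C with 2.5 nM [3H]Rauwolscine; 10 μM prazosin defines non-specific binding.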

T2 sequence (P50406 whole entry): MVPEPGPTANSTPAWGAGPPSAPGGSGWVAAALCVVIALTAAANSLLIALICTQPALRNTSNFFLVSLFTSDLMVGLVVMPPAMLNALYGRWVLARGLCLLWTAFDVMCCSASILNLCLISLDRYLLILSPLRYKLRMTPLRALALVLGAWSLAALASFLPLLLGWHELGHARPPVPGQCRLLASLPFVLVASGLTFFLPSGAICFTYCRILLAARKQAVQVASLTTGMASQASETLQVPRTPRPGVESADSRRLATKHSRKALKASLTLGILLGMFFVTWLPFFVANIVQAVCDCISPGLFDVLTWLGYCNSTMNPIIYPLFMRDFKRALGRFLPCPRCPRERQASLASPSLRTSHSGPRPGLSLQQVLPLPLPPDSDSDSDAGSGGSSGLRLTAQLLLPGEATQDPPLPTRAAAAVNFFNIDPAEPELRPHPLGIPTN

A word on the inhibition: it is the drop in the measured response relative to a control, in per cent. As for `CN1CCc2c(n(/C=C/c3ccccc3F)c3ccc(Cl)cc23)CC1` [Compound No. 83, (E)-9-chloro-6-(2-fluorostyryl)-3-methyl-1,2,3,4,5,6-hexahydro azepino[4,5-b]indole], the inhibition at 1 µM in assay [1] came to 100%; in assay [2], 103%; in assay [3] it was 113%.
For `Cc1ccc2c(c1)c1c(n2CC(=O)Nc2ccccc2)CCN(C)CC1` [Compound No. 79, 2-(2,3,4,5-tetrahydro-3,9-dimethylazepino[4,5-b]indol-6(1H)-yl)-N-phenylacetamide], the inhibition at 1 µM in assay [1] is -18%; in assay [2], -7%; in assay [3], 20%.
Turning to `COc1ccc(/C=C/n2c3c(c4cc(Cl)ccc42)CCN(C)CC3)cc1F` [Compound No. 158, (E)-6-(3-fluoro-4-methoxystyryl)-9-chloro-1,2,3,4,5,6-hexahydro-3-methylazepino[4,5-b]indole], the inhibition at 1 µM was found to be 99% in assay [1], 93% in assay [2] and 109% in assay [3].
In the same order, the values of `Cc1ccc2c(c1)c1c(n2CC(=O)N2CCNCC2)CCN(C)CC1` [Compound No. 224, 2-(3,9-dimethyl-2,3,4,5-tetrahydroazepino[4,5-b]indol-6(1H)-yl)-1-(piperazin-1-yl)ethanone] are 11%, -4% and -6%.
With `Cc1cncc(CCn2c3c(c4cc(Cl)ccc42)CCN(C)CC3)c1` [Compound No. 3, 9-chloro-3-methyl-6-(2-(5-methylpyridin-3-yl)ethyl)-1,2,3,4,5,6-hexahydroazepino[4,5-b]indole], the inhibition at 1 µM in assay [1] was 94%; in assay [2], 92%; in assay [3], 112%.
In the same order, the values of `COc1ccc(/C=C/n2c3c(c4cc(Cl)ccc42)CCN(C)CC3)cc1OC` [Compound No. 226, (E)-9-chloro-6-(3,4-dimethoxystyryl)-3-methyl-1,2,3,4,5,6-hexahydroazepino[4,5-b]indole] are 82%, 36% and 102%.
In the same order, the values of `CN1CCc2c(n(/C=C/c3ccccc3)c3ccc(Cl)cc23)CC1` [Compound No. 228, (E)-9-chloro-3-methyl-6-styryl-1,2,3,4,5,6-hexahydroazepino[4,5-b]indole] are 97%, 104% and 110%.
In the same order, the values of `C/C(=C/n1c2c(c3cc(C)ccc31)CCN(C)CC2)c1ccc(Cl)cc1Cl` [Compound No. 174, (Z)-6-(2-(2,4-dichlorophenyl)prop-1-enyl)-1,2,3,4,5,6-hexahydro-3,9-dimethylazepino[4,5-b]indole] are 101%, 100% and 105%.
As for `Cc1ccc2c(c1)c1c(n2CC(=O)N2CCC(C)CC2)CCN(C)CC1` [Compound No. 225, 2-(3,9-dimethyl-2,3,4,5-tetrahydroazepino[4,5-b]indol-6(1H)-yl)-1-(4-methylpiperidin-1-yl)ethanone], the inhibition at 1 µM in assay [1] is 44%; in assay [2], 16%; in assay [3], 13%.
The corresponding values for `COc1ccc(C(O)Cn2c3c(c4cc(Cl)ccc42)CCN(C)CC3)cc1OC` (stereo not drawn) [Compound No. 77, 2-(9-chloro-2,3,4,5-tetrahydro-3-methylazepino[4,5-b]indol-6(1H)-yl)-1-(3,4-dimethoxyphenyl)ethanol] are 72%, 33% and 113%.
With `C=C(Cn1c2c(c3cc(Cl)ccc31)CCN(C)CC2)c1ccc(F)cc1` [Compound No. 82, 9-chloro-6-(2-(4-fluorophenyl)allyl)-3-methyl-1,2,3,4,5,6-hexahydroazepino[4,5-b]indole], the inhibition at 1 µM in assay [1] was found to be 98%; in assay [2], 104%; in assay [3] it was 91%.
The corresponding values for `C/C(=C/n1c2c(c3cc(Cl)ccc31)CCN(C)CC2)c1ccc(Cl)cc1Cl` [Compound No. 152, (Z)-9-chloro-6-(2-(2,4-dichlorophenyl)prop-1-enyl)-1,2,3,4,5,6-hexahydro-3-methylazepino[4,5-b]indole] are 94%, 73% and 88%.
Consider `COc1ccc(C(O)Cn2c3c(c4cc(C)ccc42)CCN(C)CC3)cc1OC` (stereo not drawn) [Compound No. 227, 1-(3,4-dimethoxyphenyl)-2-(3,9-dimethyl-2,3,4,5-tetrahydroazepino[4,5-b]indol-6(1H)-yl)ethanol], for which the inhibition at 1 µM in assay [1] was found to be 66%; in assay [2], 30%; in assay [3], 98%.
Take `COc1ccc(/C=C/n2c3c(c4cc(C)ccc42)CCN(C)CC3)cc1F` [Compound No. 180, (E)-6-(3-fluoro-4-methoxystyryl)-1,2,3,4,5,6-hexahydro-3,9-dimethylazepino[4,5-b]indole]: the inhibition at 1 µM in assay [1] was 100%; in assay [2], 95%; in assay [3] it was 103%.
In the same order, the values of `CN1CCc2c(n(CCc3ccc(C(F)(F)F)nc3)c3ccc(Cl)cc23)CC1` [Compound No. 1, 9-chloro-6-(2-(6-(trifluoromethyl)pyridin-3-yl)ethyl)-1,2,3,4,5,6-hexahydro-3-methylazepino[4,5-b]indole] are 79%, 86% and 107%.
Take `COc1ccc(/C=C/n2c3c(c4cc(Cl)ccc42)CCN(C)CC3)cc1` [Compound No. 78, 6-(4-methoxystyryl)-9-chloro-1,2,3,4,5,6-hexahydro-3-methylazepino[4,5-b]indole]: the values for the inhibition at 1 µM in assay [1], in assay [2] and in assay [3] were 98%, 91% and 111%, respectively.
In the same order, the values of `C/C(=C\n1c2c(c3cc(Cl)ccc31)CCN(C)CC2)c1ccc(F)cc1` [Compound No. 2, 9-chloro-6-((E)-2-(4-fluorophenyl)prop-1-enyl)-1,2,3,4,5,6-hexahydro-3-methylazepino[4,5-b]indole] are 88%, 103% and 111%.
The corresponding values for `CC1CCN(C(=O)Cn2c3c(c4cc(Cl)ccc42)CCN(C)CC3)CC1` [Compound No. 76, 2-(9-chloro-2,3,4,5-tetrahydro-3-methylazepino[4,5-b]indol-6(1H)-yl)-1-(4-methylpiperidin-1-yl)ethanone] are 78%, 39% and 31%.
